The record followed here is US20050101574A1, “Parathyroid hormone production inhibitors containing vitamin d3 derivatives” (priority 2000, published 2005).

Data set [1] relates to PTH concentration in serum. The data set is described as follows: PTH concentration in serum of vitamin D deficient rats after intravenous administration (radioimmunoassay). As to conditions: for PTH conc.: mean ± standard error, n = 5. The data set is classed as in vivo, rat. Here is the method:
The number of animals were five for one group.
The volume of administered liquid was 2 mL/kg.
(§1) The volume of administered solution was 2 mL/kg.

In data set [2] the test system is calcium concentration in serum. Kind of data set: Calcium concentration in serum of vitamin D deficient rats after intravenous administration (OCPC method). The note with it: for Calcium conc. in serum: Table 4: vitamin D deficient rats; for Calcium conc. in serum / Calcium conc.: i.v., mean ± standard error, n = 5.
Experimental: (§2) (1) Male Wistar rats of 4 weeks old were purchased from Japan SLC (SLC, Shizuoka prefecture). The rats were put into wire cages three for each cage and bred under the condition of 23±1° C. and 55±10% humidity by allowing the rats to free ingestion of a vitamin D deficient feed for animal breeding (Ca, 0.0036%; P, 0.3%; Harlan Teklad Research Diet, Madison, Wis., U.S.A.) and drinking water (well water treated with 0.4%±0.2 ppm hypochlorite) for 7 weeks. The number of animals were five for one group.
(§3) (2) As shown in the Table 2, the negative control group (Group 1) was administered with a solvent (5% ethanol/0.1% Triton X-100/physiological saline solution) and the positive control group (Group 2) was administered with 0.5 μg/kg of 1α,25-dihydroxyvitamin D3 by intravenous administration.
(§4) (2) As shown in the Table 3, the negative control group (Group 1) was administered with a solvent (5% ethanol/0.1% Triton X-100/physiological saline solution) and the positive control group (Group 2) was administered with 0.25 μg/kg of 1α,25-dihydroxyvitamin D3 by intravenous administration.
(§5) (2) As shown in the Table 4, the negative control group (Group 1) was administered with a solvent (5% ethanol/0.1% Triton X-100/physiological saline solution) and the positive control group (Group 2) was administered with 1α,25-dihydroxyvitamin D3 at a dose of 0.1 μg/kg, 0.5 μg/kg and 2.5 μg/kg by intravenous administration.
The subject of data set [3] is intestinal calcium absorption. Kind of data set: Calcium absorption activity of the intestinal canal (duodenum) of vitamin D deficient rats, inverted gut sac method. Set-up: Intestinal calcium absorption: unit not given here. The data set is classed as in vivo, rat. The note with it: for Intestinal calcium absorption: Table 4: vitamin D deficient rats, i.v., Time 8 hrs, mean ± standard error, n = 5; for intestinal calcium absorption promoting activity: 8 hours, vitamin D deficient rats. Here is the method:
as §1
J. Physiol., vol.216, pp. 1351-1359, 1969.

Data set [4] deals with calcium concentration in serum. As to conditions: rat, in vivo.
Experimental: as §2, §3, §4, §5
Setting [5] is: intravenous administration at a dose of 0.5 μg/kg, vitamin D deficient rats.

Regarding `C=C1/C(=C\C=C2/CCC[C@]3(C)[C@@H]([C@H](C)CCCC(C)(C)O)CC[C@@H]23)C[C@@H](O)C[C@@H]1O` [1α,25-dihydroxyvitamin D3], the PTH conc. in data set [1] (Table 3: vitamin D deficient rats, i.v., Administration Rate 0.25, Time 8 hrs) worked out at 459 ± 14 pg/ml serum; in data set [1] (vitamin D deficient rats, i.v., Administration Rate 0.5, Time 4 hrs) it was 458 ± 38 pg/ml serum; in data set [1] (vitamin D deficient rats, i.v., Administration Rate 0.5, Time 8 hrs), 399 ± 2 pg/ml serum; in data set [1] (vitamin D deficient rats, i.v., Administration Rate 0.5, Time 24 hrs), 325 ± 31 pg/ml serum; in data set [1] (vitamin D deficient rats, i.v., Administration Rate 0.5, Time 48 hrs), 488 ± 43 pg/ml serum; in data set [1] (vitamin D deficient rats, i.v., Administration Rate 0.5, Time 72 hrs) it was 555 ± 67 pg/ml serum. In addition, the “time after administration of the lowest level of PTH concentration in serum” value in data set [1] (setting [5]) came out at 24 h. Moreover, the “Calcium conc. in serum” value in data set [2] (Administration Rate 0.1 (mg/kg), Time 8 hrs) is listed as 5.30 ± 0.10 mg/100 ml serum; in data set [2] (Administration Rate 0.5 (mg/kg), Time 8 hrs), 5.90 ± 0.40 mg/100 ml serum; in data set [2] (Administration Rate 2.5 (mg/kg), Time 8 hrs), 6.17 ± 0.07 mg/100 ml serum. Also, in data set [2] (setting [5]), the “time after administration of the maximum level of calcium concentration in serum” value worked out at 8 h. Also, the Calcium conc. in data set [2] (vitamin D deficient rats, Administration Rate 0.5 (mg/kg), Time 4 hrs) came to 5.33 ± 0.09 mg/100 ml serum; in data set [2] (vitamin D deficient rats, Administration Rate 0.5 (mg/kg), Time 8 hrs), 6.00 ± 0.17 mg/100 ml serum; in data set [2] (vitamin D deficient rats, Administration Rate 0.5 (mg/kg), Time 24 hrs) it was 5.87 ± 0.22 mg/100 ml serum; in data set [2] (vitamin D deficient rats, Administration Rate 0.5 (mg/kg), Time 48 hrs), 5.48 ± 0.15 mg/100 ml serum; in data set [2] (vitamin D deficient rats, Administration Rate 0.5 (mg/kg), Time 72 hrs) it was 5.10 ± 0.18 mg/100 ml serum.
Consider `C=C1CC(CC(C)C2CCC3C(=CC=C4CC(O)CC(O)C4=C)CCCC32C)OC1=O` [Compound 11 (23S isomer), (23S)-25-dehydro-1α,25-dihydroxyvitamin D3-26,23-lactone], for which the PTH conc. in data set [1] (Table 2: vitamin D deficient rats, i.v., Administration Rate 50, Time 4 hrs) stood at 354 ± 65 pg/ml serum; in data set [1] (Table 2: vitamin D deficient rats, i.v., Administration Rate 50, Time 8 hrs), 330 ± 72 pg/ml serum; in data set [1] (Table 2: vitamin D deficient rats, i.v., Administration Rate 50, Time 24 hrs), 319 ± 1 pg/ml serum; in data set [1] (Table 2: vitamin D deficient rats, i.v., Administration Rate 50, Time 48 hrs), 436 ± 51 pg/ml serum; in data set [1] (Table 2: vitamin D deficient rats, i.v., Administration Rate 50, Time 72 hrs), 528 ± 38 pg/ml serum; in data set [1] (Table 3: vitamin D deficient rats, i.v., Administration Rate 2, Time 8 hrs), 488 ± 47 pg/ml serum. Further, the PTH conc. in data set [1] (Table 3: vitamin D deficient rats, i.v., Administration Rate 10, Time 8 hrs) is 385 ± 65 pg/ml serum; in data set [1] (Table 3: vitamin D deficient rats, i.v., Administration Rate 50, Time 8 hrs) it was 319 ± 56 pg/ml serum. Further, the “PTH concentration in serum” value in data set [1] (intravenous administration at a dose of 10 μg/kg, vitamin D deficient rats (Example 1)) is given as “significantly lowered”. Moreover, the “time after administration of the lowest level of PTH concentration in serum” value in data set [1] (intravenous administration at a dose of 50 μg/kg, vitamin D deficient rats) is 24 h. Also, the “serum PTH concentration lowering action relative to the action of 1α,25-dihydroxyvitamin D3” value in data set [1] (ratio to 1α,25-dihydroxyvitamin D3, vitamin D deficient rats, i.v., 8 hours) is on record as 1/12. Besides, the “effect on PTH concentration in serum versus serum calcium concentration (conclusion in words)” value in data set [1] (vitamin D deficient rats, Examples 1, 2 and 3) is “effective for lowering the PTH concentration in serum without changing the calcium concentration in serum”. For the same compound, the Intestinal calcium absorption in data set [3] (Administration Rate 10 (mg/kg)) was 1.89 ± 0.04; in data set [3] (Administration Rate 50 (mg/kg)), 2.32 ± 0.21; in data set [3] (Administration Rate 250 (mg/kg)), 2.53 ± 0.10. Further, the entries for the “intestinal calcium absorption promoting activity” value in data set [3] (administration dose of from 50 μg/kg to 250 μg/kg i.v.) and in data set [3] (dose of 10 μg/kg i.v.) were “weak” and “absolutely unobservable”, respectively. Also, the calcium metabolism activity result in data set [4] was “absolutely unobservable”.
